Reference: patent EP4759810A1, “PROTAC TARGETING BCL-XL PROTEIN AND USE THEREOF” (BEIJING SUNCELL BIO-MEDICAL CO., LTD., priority 2023, dated 2025)
Like-named read-outs stand apart in the source and are kept apart here.

Key:
[1] = Metabolic stability assay in liver microsomes (human); type: in vitro ADME
Experimental: (§1) The metabolic reaction of compounds in liver microsome was performed in a system with a total volume of 400 µL, and the following steps below were sequentially performed for the reaction and detection: 1) 200 µL of phosphate buffer (200 mM), 106 µL of sterile ultrapure water, and 40 µL of magnesium chloride solution (50 mM) were added to each detection tube to prepare a reaction working solution. 2) Two reaction systems with or without adding NADPH were prepared for each compound to be tested. For the reaction system with adding NADPH: 10 µL of liver microsomes (20 mg/mL) and 40 µL of NADPH (10 mM) were added to the above working solution; for the reaction system without adding NADPH: 10 µL of liver microsomes (20 mg/mL) and 40 µL of sterile ultrapure water were added to the above working solution. The final concentration of liver microsomes in both reaction systems was 0.5 mg/mL. 3) 4 µL of the compound to be tested ([…]) was added to each reaction tube, resulting in a final concentration of 1 µM for the compound in the reaction system. The detection tubes were placed at 37°C for reaction. 4) 50 µL samples were taken from each detection tube at 0, 15, 30, 45, and 60 minutes after adding the compound. The reaction was terminated by adding cold acetonitrile containing IS (100 nM alprazolam, 200 nM labetalol, 200 nM caffeine, and 2 µM ketoprofen) in a 4× volume. The samples were centrifuged at 3220 g for 40 minutes, 100 µL of the supernatant was mixed with 100 µL of ultrapure water, and a sample was taken for LC-MS/MS analysis.
(§2) Calculation of in vitro liver microsomal metabolic half-life and in vitro metabolic intrinsic clearance rate: The LC-MS detection results were analyzed to obtain the percentage of the remaining amount of the tested compound relative to the initial amount at each time point. The natural logarithm of the remaining percentage was linearly fitted against the incubation time.

[2] = Metabolic stability assay in liver microsomes (mouse); type: in vitro ADME
Experimental: as §1, §2

Molt-4 cells [3] = assay: Detection of E3 enzyme-dependence: Molt-4 cell killing with or without pomalidomide (CCK-8); type: cell-based; conditions: 10 µM pomalidomide, Figure 2
Experimental: (§3) Actively growing and healthy Molt-4 cells were collected, centrifuged at 1000 rpm for 5 minutes, and after removing the supernatant, the cells were resuspended in fresh RPMI-1640 medium containing 10% fetal bovine serum. Cell counting was then performed. The cell density was adjusted to 120,000 cells per milliliter, and 100 µL of the cell suspension was added to each well of a 96-well transparent cell culture plate. It was noted that the edge wells of the 96-well plate were not used for testing, and 300 µL of PBS alone was added to these wells to reduce medium evaporation.
Molt-4 cells were plated in duplicate according to the number of the tested small molecules, so as to test the effects with and without the addition of pomalidomide (a competitive ligand specific for E3 ligase), in which one half of the parallel cells was added 10 µM pomalidomide. A series of small molecule concentration gradients (0.001, 0.003, 0.01, 0.03, 0.1, 0.3, 1, and 3 µM) were pre-set, and a series of 2× drug dilutions for the above concentrated were prepared in DMEM medium containing 10% fetal bovine serum. 100 µL of the above DMEM medium containing the gradient concentrations of the drug was added to 96-well plates that have been pre-plated with cells, so that the final drug concentration in each well was the pre-set series of concentrations respectively. Three replicate wells were used for each test drug concentration. The 96-well plates were placed back in a 37°C incubator, and the cell viability was detected after three days.
(§4) Cell viability after drug treatment was detected by using the CCK-8 method: three days after adding the drugs, the plates were taken out, and the supernatant was discarded. Then, 100 µL of pre-prepared CCK-8 working solution was added to each well. The CCK-8 working solution was obtained through diluting a CCK-8 stock solution (C0041, Beyotime) by 10-fold volumn with a serum-free DMEM culture medium. The 96-well plates with the added CCK-8 working solution were placed back in the 37°C incubator and incubated for 0.5-2 hours. The plates were then taken out, and the absorbance value (OD value) of each well was measured at a wavelength of 450 nm. The cell viability in each experimental group was calculated according to the following formula: Relative cell viability (%) = (Blank control group - Experimental group) / Blank control group × 100%.

Molt-4 cells [4] = assay: Molt-4 cell killing activity test (CCK-8); type: cell-based; conditions: for EC50: Homo sapiens
Experimental: as §3, with “Molt-4 cells were cultured and amplified in 10 cm dishes by using RPMI-1640 medium supplemented with 10% fetal bovine serum. Actively” for “Actively”, “testing;” for “testing,”
The small molecule compounds to be tested for activity were prepared. A series of small molecule concentration gradients (0.001, 0.003, 0.01, 0.03, 0.1, 0.3, 1, and 3 µM) were pre-set, and a series of 2× drug dilutions for the above concentrations were prepared in RPMI-1640 medium containing 10% fetal bovine serum. 100 µL of the above medium containing the gradient concentrations of the drug was added to each well of a 96-well plate pre-seeded with cells, so that the final drug concentration in each well was the pre-set concentration gradient. Three replicate wells were used for each tested drug concentration. The 96-well plate was placed back in a 37°C incubator, and the cell viability was measured after three days.
as §4, with “The plate” for “Cell viability after drug treatment”, “taken out” for “detected by using the CCK-8 method:”, “drugs,” for “drugs, the plates were taken out,”, “and” for “and the supernatant was discarded. Then,”, “RPMI-1640” for “DMEM culture”, “nm, and the” for “nm. The”

[5] = human liver microsomes 0.5 mg/mL, 1 µM compound, 37°C
[6] = mouse liver microsomes 0.5 mg/mL, 1 µM compound, 37°C

SMILES	Clint [1, 5]	T1/2 [1, 5]	Clint [2, 6]	T1/2 [2, 6]	cell killing activity after addition of pomalidomide (+poma) compared to without (-poma) (Molt-4 cells [3])	other results
[2H]C1([2H])CN(c2ccc(-c3cnn(CC45CC6CC(CC(C6)C4)C5)c3C)c(C(=O)O)n2)Cc2c(C(=O)Nc3nc4ccccc4s3)cccc21 [Compound A13D-5]	53.56 µL/min/mg protein	0.4313 h	17.61 µL/min/mg protein	1.312 h		
[2H]C1([2H])Cc2cccc(C(=O)Nc3nc4ccccc4s3)c2CN1c1ccc(-c2cnn(CC34CC5CC(CC(C5)C3)C4)c2C)c(C(=O)O)n1 [Compound A13D-6]	50.18 µL/min/mg protein	0.4603 h	14.07 µL/min/mg protein	1.642 h		metabolic stability in liver microsomes, in words ([1]; human and mouse liver microsomes, compared with A-1331852 and molecules deuterated at other sites): better metabolic stability in liver microsomes
Cc1c(-c2ccc(N3CCc4cccc(C(=O)Nc5nc6ccccc6s5)c4C3)nc2C(=O)O)cnn1CC12CC3CC(CC(C3)C1)C2 [Compound A1331852, reference compound]					only slightly affected	
O=C(Nc1nc2ccccc2s1)c1cccc2c1CN(c1ccc(CCCOc3ccc(C#CCN4CCNCC4)cc3F)c(C(=O)O)n1)CC2 [Compound C1]	7.36 µL/min/mg protein		4.90 µL/min/mg protein		only slightly affected	killing Molt-4 cells at different concentrations (Figure 1), in words (Molt-4 cells [4]; Figure 1, 0.001-3 µM, comparison with control molecules): higher percentage for killing Molt-4 cells than those of ABT-263 and DT-2216, but lower than those of A-1331852 and A-1155463; EC50 (Molt-4 cells [4]; 72 h, Molt-4 cells, three days, CCK-8, read-out: EC50 (Molt-4)): 10 to 100 nM; EC50 (Molt-4 cells [4]; Bcl-xL-positive Molt-4 cells, read-out: cellular activity / killing activity (Molt-4 cells)): 10 to 100 nM; activity for killing Molt-4 cells, in words (Molt-4 cells [4]; comparison with C1, the targeting ligand or control molecules): higher than that of the commercially available control molecule ABT-263, but lower than those of A-1331852 and A-1155463; half-life at 1 µM [1, 5]: 3.14 h; microsomal CLint at 1 µM ([1]; human liver microsomes, read-out: clearance rate (metabolic clearance rate)): 7.36 µL/min/mg; half-life at 1 µM [2, 6]: 4.71 h; microsomal CLint at 1 µM ([2]; mouse liver microsomes, read-out: clearance rate (metabolic clearance rate)): 4.9 µL/min/mg
Cc1ncsc1-c1ccc([C@H](C)NC(=O)[C@@H]2C[C@@H](O)CN2C(=O)[C@@H](NC(=O)CCCCCC(=O)N2CCN(CC[C@H](CSc3ccccc3)Nc3ccc(S(=O)(=O)NC(=O)c4ccc(N5CCN(CC6=C(c7ccc(Cl)cc7)CCC(C)(C)C6)CC5)cc4)cc3S(=O)(=O)C(F)(F)F)CC2)C(C)(C)C)cc1 [DT-2216, reference compound]					almost unaffected	
